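A five-concentration, 48-hour dose response in 96-well plates underlies each endpoint, interpolated linearly between surrounding concentrations. Here, GI50 denotes the concentration required for 50% inhibition of growth. TGI marks complete inhibition of growth.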
Tests used:
Assay in all cases: DTP human tumour cell line panel, 48 h
786-0 renal = tested on: 786-0 renal
A498 renal = tested on: A498 renal
A549 NSCLC = tested on: A549 NSCLC
ACHN renal = tested on: ACHN renal
BT-549 breast = tested on: BT-549 breast
CAKI-1 renal = tested on: CAKI-1 renal
CCRF-CEM leukemia = tested on: CCRF-CEM leukemia
COLO 205 colon = tested on: COLO 205 colon
DU-145 prostate = tested on: DU-145 prostate
EKVX NSCLC = tested on: EKVX NSCLC
HCC-2998 colon = tested on: HCC-2998 colon
HCT-116 colon = tested on: HCT-116 colon
HCT-15 colon = tested on: HCT-15 colon
HL-60(TB) leukemia = tested on: HL-60(TB) leukemia
HOP-62 NSCLC = tested on: HOP-62 NSCLC
HOP-92 NSCLC = tested on: HOP-92 NSCLC
HS 578T breast = tested on: HS 578T breast
HT29 colon = tested on: HT29 colon
IGROV1 ovarian = tested on: IGROV1 ovarian
K-562 leukemia = tested on: K-562 leukemia
KM12 colon = tested on: KM12 colon
LOX IMVI melanoma = tested on: LOX IMVI melanoma
M14 melanoma = tested on: M14 melanoma
MALME-3M melanoma = tested on: MALME-3M melanoma
MCF7 breast = tested on: MCF7 breast
MDA-MB-231 breast = tested on: MDA-MB-231 breast
MDA-MB-435 = tested on: MDA-MB-435
MOLT-4 leukemia = tested on: MOLT-4 leukemia
NCI-H226 lung = tested on: NCI-H226 lung
NCI-H23 lung = tested on: NCI-H23 lung
NCI-H460 lung = tested on: NCI-H460 lung
NCI-H522 lung = tested on: NCI-H522 lung
NCI/ADR-RES ovarian = tested on: NCI/ADR-RES ovarian
OVCAR-3 ovarian = tested on: OVCAR-3 ovarian
OVCAR-4 ovarian = tested on: OVCAR-4 ovarian
OVCAR-5 ovarian = tested on: OVCAR-5 ovarian
OVCAR-8 ovarian = tested on: OVCAR-8 ovarian
PC-3 prostate = tested on: PC-3 prostate
RPMI-8226 leukemia = tested on: RPMI-8226 leukemia
RXF 393 renal = tested on: RXF 393 renal
SF-268 CNS = tested on: SF-268 CNS
SF-295 CNS = tested on: SF-295 CNS
SF-539 CNS = tested on: SF-539 CNS
SK-MEL-2 melanoma = tested on: SK-MEL-2 melanoma
SK-MEL-28 melanoma = tested on: SK-MEL-28 melanoma
SK-MEL-5 melanoma = tested on: SK-MEL-5 melanoma
SK-OV-3 ovarian = tested on: SK-OV-3 ovarian
SN12C renal = tested on: SN12C renal
SNB-19 CNS = tested on: SNB-19 CNS
SNB-75 CNS = tested on: SNB-75 CNS
SR leukemia = tested on: SR leukemia
T-47D breast = tested on: T-47D breast
TK-10 renal = tested on: TK-10 renal
U251 CNS = tested on: U251 CNS
UACC-257 melanoma = tested on: UACC-257 melanoma
UACC-62 melanoma = tested on: UACC-62 melanoma
UO-31 renal = tested on: UO-31 renal

CS(=O)(=O)Nc1cccc(-c2ccc3ncnc(Nc4ccc(F)c(Cl)c4)c3c2)c1
GI50 (786-0 renal): 1710 nM | TGI (786-0 renal): 3760 nM | GI50 (A498 renal): 118 nM | TGI (A498 renal): 2270 nM | GI50 (A549 NSCLC): 1580 nM | TGI (A549 NSCLC): 7490 nM | GI50 (ACHN renal): 113 nM | TGI (ACHN renal): 6060 nM | GI50 (BT-549 breast): 1810 nM | TGI (BT-549 breast): 4540 nM | GI50 (CAKI-1 renal): 447 nM | TGI (CAKI-1 renal): 19200 nM | GI50 (CCRF-CEM leukemia): 3050 nM | TGI (CCRF-CEM leukemia): > 100000 nM | GI50 (COLO 205 colon): 1600 nM | TGI (COLO 205 colon): 3350 nM | GI50 (DU-145 prostate): 1290 nM | TGI (DU-145 prostate): 13800 nM | GI50 (EKVX NSCLC): 129 nM | TGI (EKVX NSCLC): 3720 nM | GI50 (HCC-2998 colon): 1940 nM | TGI (HCC-2998 colon): 3840 nM | GI50 (HCT-116 colon): 1590 nM | TGI (HCT-116 colon): 3290 nM | GI50 (HCT-15 colon): 1470 nM | TGI (HCT-15 colon): 3860 nM | GI50 (HL-60(TB) leukemia): 3530 nM | TGI (HL-60(TB) leukemia): 43300 nM | GI50 (HOP-62 NSCLC): 1810 nM | TGI (HOP-62 NSCLC): 4200 nM | GI50 (HOP-92 NSCLC): 1720 nM | TGI (HOP-92 NSCLC): 5250 nM | GI50 (HS 578T breast): 1850 nM | TGI (HS 578T breast): 5550 nM | GI50 (HT29 colon): 1640 nM | TGI (HT29 colon): 3730 nM | GI50 (IGROV1 ovarian): 1090 nM | TGI (IGROV1 ovarian): 5410 nM | GI50 (K-562 leukemia): 1980 nM | TGI (K-562 leukemia): 5620 nM | GI50 (KM12 colon): 2500 nM | TGI (KM12 colon): 8300 nM | GI50 (LOX IMVI melanoma): 1460 nM | TGI (LOX IMVI melanoma): 2890 nM | GI50 (M14 melanoma): 1760 nM | TGI (M14 melanoma): 3660 nM | GI50 (MALME-3M melanoma): 1970 nM | TGI (MALME-3M melanoma): 5100 nM | GI50 (MCF7 breast): 1560 nM | TGI (MCF7 breast): 6930 nM | GI50 (MDA-MB-231 breast): 1400 nM | TGI (MDA-MB-231 breast): 3450 nM | GI50 (MDA-MB-435): 1910 nM | TGI (MDA-MB-435): 4750 nM | GI50 (MOLT-4 leukemia): 1800 nM | TGI (MOLT-4 leukemia): 12400 nM | GI50 (NCI-H226 lung): 1800 nM | TGI (NCI-H226 lung): 5330 nM | GI50 (NCI-H23 lung): 2150 nM | TGI (NCI-H23 lung): 6570 nM | GI50 (NCI-H460 lung): 2150 nM | TGI (NCI-H460 lung): 5600 nM | GI50 (NCI-H522 lung): 1040 nM | TGI (NCI-H522 lung): 3130 nM | GI50 (NCI/ADR-RES ovarian): 2030 nM | TGI (NCI/ADR-RES ovarian): 7540 nM | GI50 (OVCAR-3 ovarian): 1600 nM | TGI (OVCAR-3 ovarian): 6270 nM | GI50 (OVCAR-4 ovarian): 2420 nM | TGI (OVCAR-4 ovarian): > 30600 nM | GI50 (OVCAR-5 ovarian): 1890 nM | TGI (OVCAR-5 ovarian): 6660 nM | GI50 (OVCAR-8 ovarian): 2230 nM | TGI (OVCAR-8 ovarian): 8530 nM | GI50 (PC-3 prostate): 1940 nM | TGI (PC-3 prostate): 5890 nM | GI50 (RPMI-8226 leukemia): 2070 nM | TGI (RPMI-8226 leukemia): 7590 nM | GI50 (RXF 393 renal): 1490 nM | TGI (RXF 393 renal): 4440 nM | GI50 (SF-268 CNS): 1970 nM | TGI (SF-268 CNS): 9140 nM | GI50 (SF-295 CNS): 1470 nM | TGI (SF-295 CNS): 3080 nM | GI50 (SF-539 CNS): 1830 nM | TGI (SF-539 CNS): 4200 nM | GI50 (SK-MEL-2 melanoma): 1980 nM | TGI (SK-MEL-2 melanoma): 4150 nM | GI50 (SK-MEL-28 melanoma): 2280 nM | TGI (SK-MEL-28 melanoma): 7200 nM | GI50 (SK-MEL-5 melanoma): 1640 nM | TGI (SK-MEL-5 melanoma): 3190 nM | GI50 (SK-OV-3 ovarian): 233 nM | TGI (SK-OV-3 ovarian): 1380 nM | GI50 (SN12C renal): 1930 nM | TGI (SN12C renal): 6590 nM | GI50 (SNB-19 CNS): 1550 nM | TGI (SNB-19 CNS): 4780 nM | GI50 (SNB-75 CNS): 4320 nM | TGI (SNB-75 CNS): > 30200 nM | GI50 (SR leukemia): 1430 nM | TGI (SR leukemia): 5320 nM | GI50 (T-47D breast): 731 nM | TGI (T-47D breast): 5170 nM | GI50 (TK-10 renal): 80.1 nM | TGI (TK-10 renal): 2260 nM | GI50 (U251 CNS): 1550 nM | TGI (U251 CNS): 3340 nM | GI50 (UACC-257 melanoma): 2050 nM | TGI (UACC-257 melanoma): 5070 nM | GI50 (UACC-62 melanoma): 1840 nM | TGI (UACC-62 melanoma): 3830 nM | GI50 (UO-31 renal): 706 nM | TGI (UO-31 renal): 3100 nM
